Data as given in US20100226853A1 (priority 2007, published 2010).
Each block holds one molecule with its values, some of them ahead of it.

Experiments:
M07e cells = test: Cellular proliferation, [3H]thymidine uptake, Kit ligand dependent growth; assay type: cell-based; conditions: Homo sapiens, M-07e, read-out: IC50, M07e cells proliferation
Description: The immortalized human hematopoietic Philadelphia chromosome-positive cytokine independent R10(−) M07e^p210 cell line (46) was maintained in Iscove's modified Dulbecco's medium (Life Technologies, Inc., Grand Island, N.Y.) containing 10% FCS (Hyclone, Logan, Utah). The parental M07e megakaryoblastic cell line was a kind gift of Brian Druker and was maintained in the presence of 50 ng/mL kit ligand (SCF) as described (46-47) K562 was obtained from the ATCC. K562 was maintained in suspension in 90% RPMI 1640 medium supplemented with 10% FBS, 2 mM L-glutamine, 10 mM HEPES, 1 mM sodium pyruvate, 1.5 g/L sodium bicarbonate, 4.5 g/L […], 10% FBS, 100 IU/mL penicillin and 100 μg/ml streptomycin. Tumor cell cultures were maintained in a humidified atmosphere with 5% CO2 at 37° C. (NuAire).
. Data points for all assays were obtained in triplicate, and background incorporation from cell-free wells was determined and subtracted from all data points. The data was analyzed using a non-linear regression fit to a sigmoidal dose-response curve using Prism 4 (GraphPad Software, Inc).

[1] = oral dasatinib therapy; cited from earlier work
[2] = system: H1975 and H1975-DR lung cancer xenografts; test: microPET competitive inhibition of tracer uptake by unlabeled Dasatinib; assay type: in vivo, SCID mouse
SRC = SRC (Homo sapiens, UniProt P12931); test: biochemical
Chain of SRC (P12931 whole entry): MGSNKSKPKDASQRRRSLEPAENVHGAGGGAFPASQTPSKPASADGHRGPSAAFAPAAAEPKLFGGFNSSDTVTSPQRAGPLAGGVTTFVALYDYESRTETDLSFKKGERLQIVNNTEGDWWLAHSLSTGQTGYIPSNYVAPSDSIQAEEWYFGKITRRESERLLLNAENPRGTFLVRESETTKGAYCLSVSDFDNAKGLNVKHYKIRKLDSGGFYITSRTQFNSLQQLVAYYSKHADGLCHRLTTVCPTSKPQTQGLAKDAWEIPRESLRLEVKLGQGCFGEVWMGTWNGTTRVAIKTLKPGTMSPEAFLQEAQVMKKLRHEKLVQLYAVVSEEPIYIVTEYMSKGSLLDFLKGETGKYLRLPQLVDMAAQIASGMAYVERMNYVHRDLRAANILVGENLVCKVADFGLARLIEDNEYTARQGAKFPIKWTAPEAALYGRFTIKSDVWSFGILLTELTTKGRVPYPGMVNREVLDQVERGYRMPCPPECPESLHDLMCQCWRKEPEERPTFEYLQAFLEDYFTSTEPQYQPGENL
From the text: (§1) An ELISA-based assay was used in which the phosphorylation of an oligopeptide substrate was detected by an HRP-conjugated anti-p-Tyr (PY20) probe.

EphB4 = biological target: T1, EphB4 (Homo sapiens, UniProt P54760); test: QuickScout ELISA kinase panel; assay type: biochemical
T1 construct: purchased Carna Biosciences (QuickScout service)
T1 sequence (P54760 16-987): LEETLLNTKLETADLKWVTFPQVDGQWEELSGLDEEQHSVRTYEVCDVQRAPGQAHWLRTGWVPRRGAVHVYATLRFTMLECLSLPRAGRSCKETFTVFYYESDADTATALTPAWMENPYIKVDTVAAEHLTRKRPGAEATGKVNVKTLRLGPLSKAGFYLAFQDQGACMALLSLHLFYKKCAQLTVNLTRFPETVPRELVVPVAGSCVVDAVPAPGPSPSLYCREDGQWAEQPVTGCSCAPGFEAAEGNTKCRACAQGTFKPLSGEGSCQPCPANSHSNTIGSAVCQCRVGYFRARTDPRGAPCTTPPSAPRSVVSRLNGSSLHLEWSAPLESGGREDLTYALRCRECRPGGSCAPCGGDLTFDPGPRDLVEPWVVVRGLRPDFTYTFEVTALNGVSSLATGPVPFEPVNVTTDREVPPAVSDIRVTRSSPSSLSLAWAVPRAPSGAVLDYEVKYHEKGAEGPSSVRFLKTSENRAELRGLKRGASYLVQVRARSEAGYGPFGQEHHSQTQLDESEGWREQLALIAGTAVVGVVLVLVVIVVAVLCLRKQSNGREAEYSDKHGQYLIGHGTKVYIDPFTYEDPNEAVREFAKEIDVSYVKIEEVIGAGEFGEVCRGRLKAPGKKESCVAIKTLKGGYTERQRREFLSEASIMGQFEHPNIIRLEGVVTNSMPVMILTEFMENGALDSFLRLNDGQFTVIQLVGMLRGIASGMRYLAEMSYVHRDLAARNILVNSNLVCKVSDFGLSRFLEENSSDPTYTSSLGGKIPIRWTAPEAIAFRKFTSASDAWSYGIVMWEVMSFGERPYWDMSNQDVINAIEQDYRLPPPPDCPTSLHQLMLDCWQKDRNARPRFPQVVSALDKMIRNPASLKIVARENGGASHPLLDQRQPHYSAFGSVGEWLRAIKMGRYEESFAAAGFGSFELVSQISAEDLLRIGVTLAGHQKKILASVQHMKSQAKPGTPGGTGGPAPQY
From the text: (§2) . […] An ELISA-based assay was used in which the phosphorylation of an oligopeptide substrate was detected by an HRP-conjugated anti-p-Tyr (PY20) probe. […]. The data appears in Table 2 in Example 3.

ACK = biological target: T2, ACK (Homo sapiens, UniProt Q07912); test: QuickScout ELISA kinase panel; assay type: biochemical
T2 construct: purchased Carna Biosciences (QuickScout service)
T2 sequence (Q07912 whole entry): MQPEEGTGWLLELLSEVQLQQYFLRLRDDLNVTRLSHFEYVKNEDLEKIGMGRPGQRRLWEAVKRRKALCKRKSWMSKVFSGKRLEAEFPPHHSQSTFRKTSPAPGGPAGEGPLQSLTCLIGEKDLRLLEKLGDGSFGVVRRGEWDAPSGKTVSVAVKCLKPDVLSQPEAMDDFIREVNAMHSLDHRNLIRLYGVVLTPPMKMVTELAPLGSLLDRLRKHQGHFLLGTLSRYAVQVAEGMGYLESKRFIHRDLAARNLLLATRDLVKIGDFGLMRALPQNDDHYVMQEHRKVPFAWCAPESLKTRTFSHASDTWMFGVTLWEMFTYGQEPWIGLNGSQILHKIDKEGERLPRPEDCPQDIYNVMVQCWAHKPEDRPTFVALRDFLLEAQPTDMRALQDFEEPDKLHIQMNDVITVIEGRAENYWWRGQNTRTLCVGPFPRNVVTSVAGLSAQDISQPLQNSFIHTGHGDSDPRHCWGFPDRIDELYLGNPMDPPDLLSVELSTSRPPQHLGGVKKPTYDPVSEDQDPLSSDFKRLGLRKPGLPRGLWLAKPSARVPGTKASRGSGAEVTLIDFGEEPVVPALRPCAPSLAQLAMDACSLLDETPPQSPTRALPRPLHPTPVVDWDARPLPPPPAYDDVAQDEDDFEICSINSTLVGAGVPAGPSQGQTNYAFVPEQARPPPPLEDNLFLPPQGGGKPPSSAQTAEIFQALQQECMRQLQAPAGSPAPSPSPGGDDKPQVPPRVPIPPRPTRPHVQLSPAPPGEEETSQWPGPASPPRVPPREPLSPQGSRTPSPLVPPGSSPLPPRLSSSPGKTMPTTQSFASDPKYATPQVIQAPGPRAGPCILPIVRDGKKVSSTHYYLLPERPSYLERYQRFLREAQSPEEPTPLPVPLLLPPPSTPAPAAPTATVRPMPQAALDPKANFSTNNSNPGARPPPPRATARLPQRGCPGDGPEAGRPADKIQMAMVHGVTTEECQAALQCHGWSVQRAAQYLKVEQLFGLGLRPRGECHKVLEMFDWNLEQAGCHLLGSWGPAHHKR
From the text: as §2

CSK = biological target: T3, CSK (Homo sapiens, UniProt P41240); test: QuickScout ELISA kinase panel; assay type: biochemical
T3 construct: purchased Carna Biosciences (QuickScout service)
From the text: as §2

TYRO3 = biological target: T4, TYRO3 (Homo sapiens, UniProt Q06418); test: QuickScout ELISA kinase panel; assay type: biochemical
T4 construct: purchased Carna Biosciences (QuickScout service)
From the text: as §2

FLT3 = biological target: T5, FLT3 (Homo sapiens, UniProt P36888); test: QuickScout ELISA kinase panel; assay type: biochemical
T5 construct: purchased Carna Biosciences (Kobe, Japan), QuickScout service
T5 sequence (P36888 27-993): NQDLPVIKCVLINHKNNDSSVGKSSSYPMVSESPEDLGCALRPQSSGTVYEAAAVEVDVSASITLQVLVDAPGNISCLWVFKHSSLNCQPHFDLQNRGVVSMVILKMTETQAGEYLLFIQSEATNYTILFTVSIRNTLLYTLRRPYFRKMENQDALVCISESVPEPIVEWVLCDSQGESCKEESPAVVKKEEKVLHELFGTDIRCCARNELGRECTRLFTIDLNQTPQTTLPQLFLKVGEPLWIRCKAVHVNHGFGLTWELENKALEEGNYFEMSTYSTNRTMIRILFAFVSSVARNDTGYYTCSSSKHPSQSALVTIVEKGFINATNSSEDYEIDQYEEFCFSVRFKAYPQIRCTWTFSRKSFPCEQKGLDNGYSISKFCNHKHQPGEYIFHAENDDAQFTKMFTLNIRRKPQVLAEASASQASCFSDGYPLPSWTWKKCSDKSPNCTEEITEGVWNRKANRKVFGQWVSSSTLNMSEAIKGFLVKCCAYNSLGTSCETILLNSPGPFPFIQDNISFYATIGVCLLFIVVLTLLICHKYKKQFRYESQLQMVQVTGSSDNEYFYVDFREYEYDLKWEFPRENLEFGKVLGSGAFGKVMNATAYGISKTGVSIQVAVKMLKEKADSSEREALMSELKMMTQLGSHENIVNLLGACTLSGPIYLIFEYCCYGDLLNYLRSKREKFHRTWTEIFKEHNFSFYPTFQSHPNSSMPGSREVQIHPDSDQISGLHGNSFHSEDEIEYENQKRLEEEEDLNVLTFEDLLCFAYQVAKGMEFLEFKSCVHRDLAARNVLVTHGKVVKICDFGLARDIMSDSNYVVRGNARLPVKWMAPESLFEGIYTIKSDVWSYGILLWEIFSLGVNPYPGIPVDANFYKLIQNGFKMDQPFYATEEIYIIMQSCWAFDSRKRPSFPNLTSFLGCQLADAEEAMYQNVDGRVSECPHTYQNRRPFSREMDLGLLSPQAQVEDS
From the text: as §2

PDGFR— = biological target: T6, PDGFR— (Homo sapiens, UniProt P16234); test: QuickScout ELISA kinase panel; assay type: biochemical
T6 construct: purchased Carna Biosciences (Kobe, Japan), QuickScout service
T6 sequence (P16234 550-1089 limits assumed): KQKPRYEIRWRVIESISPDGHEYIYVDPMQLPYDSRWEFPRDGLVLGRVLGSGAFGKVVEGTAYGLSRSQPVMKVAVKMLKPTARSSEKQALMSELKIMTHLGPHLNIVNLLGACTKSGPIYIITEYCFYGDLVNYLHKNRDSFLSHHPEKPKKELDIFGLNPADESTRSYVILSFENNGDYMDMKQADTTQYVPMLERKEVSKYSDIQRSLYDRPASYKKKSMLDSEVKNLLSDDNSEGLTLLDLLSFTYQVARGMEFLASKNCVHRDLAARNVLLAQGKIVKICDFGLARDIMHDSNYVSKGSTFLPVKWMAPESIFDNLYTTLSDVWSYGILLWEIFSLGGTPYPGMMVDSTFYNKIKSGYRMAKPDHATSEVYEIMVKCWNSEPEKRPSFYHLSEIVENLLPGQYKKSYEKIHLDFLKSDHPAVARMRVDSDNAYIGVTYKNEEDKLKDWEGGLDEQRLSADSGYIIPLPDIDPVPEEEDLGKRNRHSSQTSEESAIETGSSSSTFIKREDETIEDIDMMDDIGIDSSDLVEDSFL
From the text: as §2

TEC = biological target: T7, TEC (Homo sapiens, UniProt P42680); test: QuickScout ELISA kinase panel; assay type: biochemical
T7 construct: purchased Carna Biosciences (Kobe, Japan), QuickScout service
T7 sequence (P42680 1-631): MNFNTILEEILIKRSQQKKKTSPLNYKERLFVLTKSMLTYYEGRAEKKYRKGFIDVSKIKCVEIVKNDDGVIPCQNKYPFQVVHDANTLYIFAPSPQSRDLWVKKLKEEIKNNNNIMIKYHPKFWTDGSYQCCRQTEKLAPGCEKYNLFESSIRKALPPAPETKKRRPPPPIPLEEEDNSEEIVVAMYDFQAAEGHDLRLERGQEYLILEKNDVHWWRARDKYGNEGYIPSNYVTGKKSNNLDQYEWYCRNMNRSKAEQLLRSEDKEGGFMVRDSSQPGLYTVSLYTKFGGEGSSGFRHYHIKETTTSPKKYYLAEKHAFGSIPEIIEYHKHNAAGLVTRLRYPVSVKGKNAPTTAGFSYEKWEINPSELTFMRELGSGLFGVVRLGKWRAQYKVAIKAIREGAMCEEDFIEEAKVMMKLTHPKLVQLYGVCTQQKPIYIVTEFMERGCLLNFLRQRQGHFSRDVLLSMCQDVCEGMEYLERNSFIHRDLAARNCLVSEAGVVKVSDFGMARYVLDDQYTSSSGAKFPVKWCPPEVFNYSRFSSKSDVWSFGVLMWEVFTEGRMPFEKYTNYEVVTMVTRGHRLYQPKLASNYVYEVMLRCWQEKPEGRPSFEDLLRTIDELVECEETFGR
From the text: as §2

MET = biological target: T8, MET (Homo sapiens, UniProt P08581); test: QuickScout ELISA kinase panel; assay type: biochemical
T8 construct: purchased Carna Biosciences (QuickScout service)
From the text: as §2

EphA2 = biological target: T9, EphA2 (Homo sapiens, UniProt P29317); test: QuickScout ELISA kinase panel; assay type: biochemical
T9 construct: purchased Carna Biosciences (QuickScout service)
T9 sequence (P29317 24-976): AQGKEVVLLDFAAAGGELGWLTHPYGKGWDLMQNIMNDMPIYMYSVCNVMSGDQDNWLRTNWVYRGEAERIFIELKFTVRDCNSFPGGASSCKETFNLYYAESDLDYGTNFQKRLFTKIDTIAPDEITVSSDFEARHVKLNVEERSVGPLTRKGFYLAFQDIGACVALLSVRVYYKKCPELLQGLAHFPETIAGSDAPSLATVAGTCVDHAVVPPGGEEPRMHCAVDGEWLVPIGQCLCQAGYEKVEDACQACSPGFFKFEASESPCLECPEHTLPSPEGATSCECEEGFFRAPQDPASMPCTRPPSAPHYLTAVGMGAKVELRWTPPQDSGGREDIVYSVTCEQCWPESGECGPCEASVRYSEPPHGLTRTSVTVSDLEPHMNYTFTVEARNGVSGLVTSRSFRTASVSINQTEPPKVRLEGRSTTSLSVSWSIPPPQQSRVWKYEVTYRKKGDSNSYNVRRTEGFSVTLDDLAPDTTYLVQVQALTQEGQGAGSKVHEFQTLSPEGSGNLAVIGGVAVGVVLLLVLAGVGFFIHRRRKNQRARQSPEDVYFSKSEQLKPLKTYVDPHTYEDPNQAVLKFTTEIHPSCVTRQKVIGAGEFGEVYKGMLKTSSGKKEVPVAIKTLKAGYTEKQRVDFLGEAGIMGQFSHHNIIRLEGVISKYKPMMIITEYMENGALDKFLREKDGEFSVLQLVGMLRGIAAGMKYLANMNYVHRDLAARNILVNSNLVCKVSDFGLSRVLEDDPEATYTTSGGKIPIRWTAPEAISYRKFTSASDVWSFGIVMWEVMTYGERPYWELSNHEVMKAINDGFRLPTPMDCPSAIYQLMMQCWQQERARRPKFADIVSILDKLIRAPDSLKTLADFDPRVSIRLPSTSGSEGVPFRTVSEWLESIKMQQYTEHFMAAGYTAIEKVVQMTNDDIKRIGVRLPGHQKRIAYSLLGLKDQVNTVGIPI
From the text: as §2

JAK3 = biological target: T10, JAK3 (Homo sapiens, UniProt P52333); test: QuickScout ELISA kinase panel; assay type: biochemical
T10 construct: purchased Carna Biosciences (QuickScout service)
From the text: as §2

EGFR = biological target: T11, EGFR (Homo sapiens, UniProt P00533); test: QuickScout ELISA kinase panel; assay type: biochemical; conditions: Table 3
T11 construct: purchased Carna Biosciences (QuickScout service)
From the text: as §1

KIT = biological target: T12, KIT (Homo sapiens, UniProt P10721); test: QuickScout ELISA kinase panel; assay type: biochemical; conditions: Table 3
T12 construct: purchased Carna Biosciences (Kobe, Japan), QuickScout service
From the text: as §1

FGFR1 = biological target: T13, FGFR1 (Homo sapiens, UniProt P11362); test: QuickScout ELISA kinase panel; assay type: biochemical; conditions: Table 3
T13 construct: purchased Carna Biosciences (QuickScout service)
From the text: as §1

[3] = system: K562 (CML) tumor xenografts; test: microPET imaging of K562 xenograft; assay type: in vivo, athymic nu/nu mice
Description: All animal studies were carried out within the framework of an institutional IACUC approved protocol (No. 86-02-020). Athymic nu/nu mice (National Cancer Institute, Bethesda, Md.) were inoculated subcutaneously onto the right shoulder with 1×10^7 K562 cells mixed with Matrigel (BD Biosciences, San Jose, Calif.). K562 is a chronic myelogenous leukemia cell line cultured with IMDM (Iscove's modified Dulbecco's medium; prepared in-house) containing 4 mM L-glutamine, 1.5 g/L sodium bicarbonate, and 10% fetal bovine serum.
Three weeks following tumor inoculation, PET images of mice were obtained using FOCUS 120 microPET™ scanner (Siemens Preclinical Solutions, Knoxyille, Tenn.) with [^18F]-5. Mice were injected intravenously (via tail vein) with 14±1 MBq (375±25 μCi) of [^18F]-5 and imaged 60 minutes later under 2% (at 1 L/min) isoflurane anesthesia (Forane, Baxter Healthcare, Deerfield, Ill.). Image acquisition time was 15 min (t=60 to 75 min) using a 250-750 keV energy window and a 6 nsec timing window. List-mode data were sorted into sinograms by Fourier re-binning and reconstructed by filter back-projection without attenuation correction. Count data in the reconstructed images were converted to activity concentration (i.e. % of the injected dose per gram (% ID/gm)) using a system calibration factor determined using a ^18F-filled mouse-sized phantom. Visualization and analyses of microPET images were carried out using AsiPRO™ software (Siemens Preclinical Solutions, Knoxyille, Tenn.).
In vivo results have been obtained in athymic mice bearing subcutaneous K562 (CML) tumor xenografts in the right shoulder. [^18F]-5 (14±1 MBq, 375±25 μCi) was injected through the tail vein and the subjects were imaged in a microPET scanner. […] Tracer activity was evident within the tumor xenograft (white arrow) and was determined to be 1.1% of the injected dose by ROI (region of interest) analysis. […] The transaxial image was taken at the level of the known palpable tumor as shown in the coronal section (broken line). The intensity of the radiotracer activity is color-graded as depicted by the colored scale.

ABL = ABL (Homo sapiens, UniProt P00519); test: QuickScout ELISA kinase panel; assay type: biochemical; parameters: purchased Carna Biosciences (QuickScout service); conditions: Table 3
From the text: as §1

[4] = In vivo metabolism in mice (blood/plasma radio-HPLC); conditions: for Peak 3 [18F]-5 (16.9 min) % Radioactivity, parent: plasma
Description: Mice were injected i.v. with [^18F]-5 in the tail vein and sacrificed using carbon dioxide at 30, 60 and 120 min post injection. Each group contained three mice. Immediately after sacrifice, about 0.5 ml of blood was collected by cardiac puncture and deposited in a 1.5 ml Eppendorf tube. Disodium EDTA (2.5 mg) was used as anticoagulant. The samples were then maintained at 4° C. for subsequent procedures. The total radioactivity in each total blood sample was counted. The samples were then centrifuged at 4° C. at 2200×g. Radioactivity of the serum and pellet measured and about 50% of the total radioactivity was retained in the pellet. The serum was transferred to a 1.5 ml Eppendorf tube containing about […] of 60% acetonitrile in water and centrifuged again to precipitate any residual proteins. The supernatant was analyzed using HPLC and examined for metabolites. HPLC was carried out on a C-18 Shimadzu 4.6×250 mm HPLC column and eluted under gradient conditions 80% A (pH 5.5 50 mM NaOAc):20% B (CH3CN) to 20% A:80% B at 1 ml/min. Radioactivity was detected using Packard Radiomatic FLO-One/beta detector equipped with a PET flow cell containing BGO (bismuthgermanate) windows.

Compound: Cc1nc(Nc2ncc(C(=O)Nc3c(C)cccc3Cl)s2)cc(N2CCN(CCO)CC2)n1.O [Dasatinib, N-(2-chloro-6-methylphenyl)-2-[[6-[4-(2-hydroxyethyl)-1-piperazinyl]-2-methyl-4-pyrimidinyl]amino]-5-thiazole carboxamide monohydrate, reference compound]
IC50 (M07e cells): 1.2 ± 0.8 nM | patients with severe myelosuppression [1]: > 50% | effect of unlabeled Dasatinib on [18F]-5 uptake ([2]; Dasatinib 30 mg/kg IP): competitive inhibition of tracer uptake in the tumors and organs

Compound: CN[C@@H]1C[C@H]2O[C@@](C)([C@@H]1OC)n1c3ccccc3c3c4c(c5c6ccccc6n2c5c31)C(=O)NC4 [Staurosporine, reference compound]
inhibition at 3 µM (SRC; read-out: % Inhibition of Kinase Activity, SRC, Staurosporine at 3000 nM): 89.8% | inhibition at 10 µM (EphB4; read-out: % Inhibition of Kinase Activity, EphB4): 94.1% | inhibition at 0.03 µM (ACK; read-out: % Inhibition of Kinase Activity, ACK): 96.4% | inhibition at 0.3 µM (CSK; read-out: % Inhibition of Kinase Activity, CSK): 89.3% | inhibition at 1 µM (TYRO3): 95.3% | inhibition at 0.003 µM (FLT3): 96.4% | inhibition at 0.003 µM (PDGFR—; read-out: % Inhibition of Kinase Activity, PDGFR—): 88.4% | inhibition at 0.3 µM (TEC; read-out: % Inhibition of Kinase Activity, TEC): 92.5% | inhibition at 0.3 µM (MET): 90% | inhibition at 10 µM (EphA2; read-out: % Inhibition of Kinase Activity, EphA2): 92.6% | inhibition at 0.003 µM (JAK3): 95.3%

EC50 (SRC): 2.6 nM | EC50 (EGFR): 270 nM | EC50 (KIT): 1.3 nM | EC50 (FGFR1): 390 nM | tracer activity within the tumor xenograft by ROI analysis ([3]; 60 minutes after i.v. injection, one representative mouse): 1.1 % of the injected dose | uptake in bone ([3]; microPET 60-75 min): no significant uptake | K562 tumor uptake in mice ([3]; mouse, in vivo): significant K562 tumor uptake | EC50 (EphB4; Table 3): 3.1 nM | EC50 (ACK; Table 3): 20 nM | EC50 (CSK; Table 3): 5 nM | EC50 (PDGFR—; Table 3): 16 nM | EC50 (TEC; Table 3): 1.9 nM | EC50 (EphA2; Table 3): 1.9 nM | tumor uptake of tracer ([2]; H1975 right, H1975-DR left shoulder, before Dasatinib): tumor uptake is evident bilaterally | EC50 (ABL): 0.6 nM | total blood radioactivity retained in the pellet ([4]; mouse blood centrifuged at 2200 x g after i.v. injection): about 50% | Peak 3 [18F]-5 (16.9 min) % Radioactivity, parent ([4]; 30 min post injection): 31 ± 11% | Peak 3 [18F]-5 (16.9 min) % Radioactivity, parent ([4]; 60 min post injection): 9 ± 3% | Peak 3 [18F]-5 (16.9 min) % Radioactivity, parent ([4]; 120 min post injection, one trial only): 8% | metabolism in plasma over time course ([4]; two-hour time course, HPLC of plasma): metabolized significantly
Compound: Cc1nc(Nc2ncc(C(=O)Nc3c(C)cccc3Cl)s2)cc(N2CCN(CC[18F])CC2)n1 [[^18F]-5]
route of clearance ([3]; microPET 60-75 min): cleared via the hepatobiliary route predominantly
